Experimental findings from patent publication US20050202424A1, “Regulators of biofilm formation and uses thereof” (priority 2001, published 2005) are described below.

Experiment [1] deals with P. aeruginosa small colony variants in CF sputum samples. In words: Antibiotic resistant small colony variants in CF sputum samples plated on cetrimide agar with and without antibiotics. It is filed as cell-based, Pseudomonas aeruginosa. The procedure:
Five CF sputum samples from the Clinical Microbiology Laboratory at Massachusetts General Hospital were suspended in 5 ml of 10 mM MgSO4. Serial dilutions of the samples were then plated onto cetrimide agar plates with and without antibiotics. The plates were screened for the presence of P. aeruginosa after 24 and 48 hours of incubation at 37° C. The identity of the colonies was later confirmed by probing colony lifts with the exotoxin A gene from P. aeruginosa. To this end, the EcoRI-HindIII fragment of plasmid pRGI containing the exoA gene (Samadpour et al., J. Clin. Microbiol. 26:2319-23, 1988) was gel isolated and labeled using a random priming kit (Boehringer, Mannheim, Indianapolis, Ind.). Colonies were transferred to nylon membranes and hybridizations were performed according to the manufacturer's recommendations (NEN Research Products, Boston, Mass.). Identification of colonies carrying the exoA gene was then performed using a Phosphorimager (Amersham Pharmacia Biotech Inc., Piscataway, N.J.).
The presence of P. aeruginosa antibiotic resistant small colony variants was determined by plating CF sputum samples on cetrimide agar with and without the indicated antibiotics. […]

Experiment [2] deals with PA14 and PA14 RSCV biofilms. In words: Biofilm resistance to tobramycin in flow chambers (viable biomass by CSLM of GFP-tagged cells). It is filed as cell-based, Pseudomonas aeruginosa. To be noted: continuous flow of tobramycin 200 μg/ml on established biofilms. How it is done:
To determine whether the antibiotic resistant phenotype of PA14 RSCV is associated with altered biofilm formation, PA14 RSCV was cultured under biofilm-forming conditions as follows. For biofilm characterization, PA14 RSCV biofilms were cultivated under continuous culture conditions in flow-chambers with channel dimensions of 12 by 52 by 2 mm. Flow media consisted of M63 supplemented with 0.5% casamino acids and 0.3% glucose. For measurement of biofilm resistance, bacteria were cultivated in flow-chambers with channel dimensions of 1 by 40 by 4 mm (Stovall Inc., Greensboro, N.C.). In this case, flow media consisted of FAB medium (0.1 mM CaCl2, 0.01 mM Fe-EDTA, 0.15 mM NH4SO4, 0.33 mM Na2HPO4, 0.2 mM KH2PO4 and 1 mM MgCl2) supplemented with casamino acids (0.5%) and sodium citrate (10 mM). Flow-cells in both cases were inoculated with 100-fold dilutions of overnight cultures of PA14 and PA14 RSCV carrying the green fluorescent protein (GFP) in plasmid SMC21, a derivative of pSMC2 (Bloemberg et al., Appl. Environ. Microbiol. 63: 4543-4551, 1997). […] The volume (in μm^3) of individual biofilm structures was determined from serial sections using ImageSpace software (Molecular Dynamics, Sunnyvale, Calif.).
Viable biomass was measured by CSLM analysis of GFP-tagged PA14 and PA14 RSCV cells using GFP expression as a viability marker as described previously (FIG. 1E).

The test system of experiment [3] is PA14 RSCV. In words: Resistance of PA14 RSCV colonies to antibiotics on plates. The experiment is classed as cell-based, Pseudomonas aeruginosa. To be noted: for resistance of PA14 RSCV colonies: 8 individual colonies. How it is done:
To induce such phenotypic variants, an overnight culture of P. aeruginosa strain PA14 (UCBPP-PA14) was inoculated onto Luria-Bertani (LB) containing 200 μg/ml of kanamycin, incubated at 37° C. for 48 hours, at which time, antibiotic resistant rough small variants were isolated. Antibiotic resistant colonies arose at a frequency of 10^−6-10^−7. […] In addition to being resistant to kanamycin, (up to 40 times the susceptibility level of the wild-type), 8 individual PA14 RSCV colonies tested were also resistant to amikacin (30 μg/ml), carbenicillin (300 μg/ml), gentamicin (30 μg/ml), tobramycin (10 μg/ml), and tetracycline (150 μg/ml). Consistent with this latter result, antibiotic resistant variants were also obtained at frequencies of about 10^−7 by plating overnight cultures of PA14 on media containing similar concentrations of the antibiotics mentioned above.

The test system of experiment [4] is wild-type PA14. Put plainly: Minimal inhibitory concentration of kanamycin in liquid culture. The experiment is classed as cell-based. As to conditions: Pseudomonas aeruginosa; PA14 in M63 liquid medium; read-out: concentration of kanamycin required to inhibit growth (MIC). The procedure:
Phenotypic variation is a common phenomenon in Gram-negative bacteria that often involves environmentally regulated changes in observable phenotypes produced by modifications in surface components. The effect that different environmental stimuli had on the appearance of kanamycin-resistant phenotypic variants was examined. Bacteria were grown in LB broth, or in supplemented LB with appropriate antibiotics at the indicated temperature with aeration. […] Moreover, the frequency of variants increased 200-fold when plates were incubated at 25° C. compared to 37° C. (FIG. 2A). Finally, a dramatic 10^6-fold increase was obtained on minimal M63 salts as compared to LB medium (FIG. 2A). Minimal salt media consisted of M63 supplemented with 0.3% glucose, 1 mM MgSO4, and 0.5% casamino acids. Importantly, there was a correlation between the frequency of appearance of kanamycin resistant variants on plates and minimal inhibitory concentrations (MICs) of kanamycin in liquid culture for the wild-type PA14 using the culture conditions described above (FIG. 2B).

Setting [5] is: Sample 5, patient on Amikacin(IV)/Ceftazidime(IV).
Where [6] appears, read: Sample 38, patient on Tobramycin (I)/Levofloxacin.
Setting [7] is: Sample 41, no antibiotic treatment.
Where [8] appears, read: Sample 42, no antibiotic treatment.
[9] abbreviates: Sample 43, no antibiotic treatment.

Values after ≈ are worked out from the molar mass of the structure shown.

With `NC[C@H]1O[C@H](O[C@H]2[C@H](O)[C@@H](O[C@H]3O[C@H](CO)[C@@H](O)[C@H](N)[C@H]3O)[C@H](N)C[C@@H]2N)[C@H](N)C[C@@H]1O` [tobramycin], the “Variants resistant to antibiotic (%)” value is reported as 50% in experiment [1] (setting [5]); 100% in experiment [1] (setting [6]); 0.10% in experiment [1] (setting [7]); 0% in experiment [1] (setting [8]); 0.5% in experiment [1] (setting [9]). In addition, the “resistance of PA14 RSCV biofilm to tobramycin treatment versus wild-type PA14 biofilm” value in experiment [2] is given as “more resistant”. The “resistance of PA14 RSCV colonies” value in experiment [3] (tobramycin 10 μg/ml) is reported as “resistant”.

With gentamicin, the “Variants resistant to antibiotic (%)” value came to 100% in experiment [1] (setting [5]); 100% in experiment [1] (setting [6]); 10% in experiment [1] (setting [7]); 6.6% in experiment [1] (setting [8]); 0.5% in experiment [1] (setting [9]). Besides, the “resistance of PA14 RSCV colonies” value in experiment [3] (gentamicin 30 μg/ml) is given as “resistant”.

Turning to `CN(C)[C@@H]1C(O)=C(C(N)=O)C(=O)[C@@]2(O)C(O)=C3C(=O)c4c(O)cccc4[C@@](C)(O)[C@H]3C[C@@H]12` [tetracycline], the “Variants resistant to antibiotic (%)” value in experiment [1] (setting [5]) is on record as 30%; in experiment [1] (setting [6]), 32%; in experiment [1] (setting [7]) it was 0%; in experiment [1] (setting [8]), 0%.

On to `NC[C@H]1O[C@H](O[C@H]2[C@H](O)[C@@H](O[C@H]3O[C@H](CO)[C@@H](O)[C@H](N)[C@H]3O)[C@H](N)C[C@@H]2N)[C@H](O)[C@@H](O)[C@@H]1O` [kanamycin], for which the MIC in experiment [4] is 475 µg/mL (≈ 980 µM). The “resistance to kanamycin relative to the susceptibility level of the wild-type” value in experiment [3] (PA14 RSCV colonies) is “up to 40 times”.

In the case of `NCC[C@H](O)C(=O)N[C@@H]1C[C@H](N)[C@@H](O[C@H]2O[C@H](CN)[C@@H](O)[C@H](O)[C@H]2O)[C@H](O)[C@H]1O[C@H]1O[C@H](CO)[C@@H](O)[C@H](N)[C@H]1O` [amikacin], the “Variants resistant to antibiotic (%)” value in experiment [1] (setting [5]) stood at 100%; in experiment [1] (setting [6]), 100%; in experiment [1] (setting [7]), 15%; in experiment [1] (setting [8]) it was 5%; in experiment [1] (setting [9]), 0.2%. For the same compound, in experiment [3] (amikacin 30 μg/ml), the “resistance of PA14 RSCV colonies” value is recorded as “resistant”.

For the compound `CC1(C)S[C@@H]2[C@H](NC(=O)C(C(=O)O)c3ccccc3)C(=O)N2[C@H]1C(=O)O` (some centres unmarked) [carbenicillin], the “resistance of PA14 RSCV colonies” value in experiment [3] (carbenicillin 300 μg/ml) was “resistant”.
